Values of other authors as cited in patent US6461590B2, “Stabilized gas-supersaturated suspensions and methods for their delivery” (Wayne State University, priority 1996, dated 2002).

For `OCC(O)CO` [Glycerin], the oxygen solubility is given as 0.008 cc O2/g/atm.
